# Experimental data from US7745619B2, “Vinca derivatives” (priority 2003, dated 2010).
# Where two headings read alike, the source gives them in different places.
# Tests used:
# MCF-7 cells = test: MCF-7 GI50 determination (crystal violet growth inhibition); type: cell-based, human; details: Homo sapiens, MCF7, 96 h
# Description: Growth inhibition (GI50) values were measured on the human breast carcinoma line, MCF-7. MCF-7 cells were plated at 2×10^4 cells/well in 96 well plates and grown for 24 hours in drug free media. On day 2, test compounds were added to the plates at 10-fold dilutions. Four days later, cells were fixed by the addition of glutaraldehyde to 0.75%. After 30 min, the fixed cells were extensively rinsed with distilled water and dried at room temperature for one hour. The cells were then stained with a 0.2% crystal violet solution for one hour at room temperature. Unbound stain was removed by ten rinses with tap water and plates were allowed to air dry for 30 min. The crystal violet was then solubilized by the addition of 10% acetic acid for 15 min and quantified by measuring absorbance at 570 nm on a Molecular Devices microplate reader. Growth inhibition was calculated according to the following equation: GI=[…], where the optical density (OD) of the test well after 4 days of treatment was T, the OD of the wells in the control plate on day 0 was T0. Plots of percent growth inhibition versus inhibitor concentration were used to determine the GI50.
# HeLa S-3 cells = test: HeLa GI50 determination (SRB growth inhibition); type: cell-based, human; details: Homo sapiens, HeLa S3, 48 h
# Description: Growth inhibition (GI50) values were measured on the human cervical carcinoma cell line, HeLa S-3, which were selected for growth on plastic. The HeLa cell assay was based on the description of Skehan et al., J. Natl. Cancer Inst., 82:1107-12 (1990), which is hereby incorporated by reference in its entirety. HeLa cells were plated at 2×10^4 cells/well in 96 well plates. One day later, a control plate was fixed by the addition of TCA to 5%. After five rinses with tap water, the plate was air-dried and stored at 4° C. Test compounds were added to the remaining plates at 10-fold dilutions. Two days later, all plates were fixed as described above. Cells were then stained by the addition of 100 μL per well of 0.4% sulforhodamine B (SRB) in 1% acetic acid for 30 min at 4° C. Wells were then quickly rinsed 5× with 1% acetic acid and allowed to air dry. The SRB was then solubilized by the addition of 100 μL per well of unbuffered 10 mM Tris base. Dye was quantified by measuring absorbance at 490 nm on a Molecular Devices microplate reader. Growth inhibition was calculated according to the following equation: GI=100×(T−T0)/(C−T0), where the optical density (OD) of the test well after 2 days of treatment was T, the OD of the wells in the control plate on day 0 was T0 and C was the OD of untreated wells. Plots of percent growth inhibition versus inhibitor concentration were used to determine the GI50.
# [1] = read-out: MCF-7 Cells GI50 (nM)
# [2] = MCF-7 cells, 4 days of treatment, crystal violet, read-out: MCF-7 Cells GI50
# [3] = HeLa S-3 cells, 2 days of treatment, sulforhodamine B, read-out: HeLa Cells GI50
SMILES,GI50 (MCF-7 cells; [1]),GI50 (HeLa S-3 cells; read-out: HeLa Cells GI50 (nM)),GI50 (MCF-7 cells; [2]),GI50 (HeLa S-3 cells; [3])
"CC[C@]1(O)C[C@H]2CN(CCc3c([nH]c4ccc(-c5ccccc5)cc34)[C@@](C(=O)OC)(c3cc4c(cc3OC)N(C=O)[C@H]3[C@@](O)(C(=O)OC)[C@H](OC(C)=O)[C@]5(CC)C=CCN6CC[C@]43[C@@H]65)C2)C1 [Example 5, 12′-phenylvincristine]",30 nM,50 nM,–,–
"CC[C@]1(O)C[C@H]2CN(CCc3c([nH]c4ccc(-c5ccccc5)cc34)[C@@](C(=O)OC)(c3cc4c(cc3OC)N(C)[C@H]3[C@@](O)(C(=O)OC)[C@H](OC(C)=O)[C@]5(CC)C=CCN6CC[C@]43[C@@H]65)C2)C1 [Example 6, 12′-phenylvinblastine]",300 nM,400 nM,–,–
"CC[C@]1(O)C[C@H]2CN(CCc3c([nH]c4ccc(-c5ccc(OC)cc5)cc34)[C@@](C(=O)OC)(c3cc4c(cc3OC)N(C=O)[C@H]3[C@@](O)(C(=O)OC)[C@H](OC(C)=O)[C@]5(CC)C=CCN6CC[C@]43[C@@H]65)C2)C1 [Example 7, 12′-(4-methoxyphenyl) vincristine]",100 nM,400 nM,–,–
"CC[C@]1(O)C[C@H]2CN(CCc3c([nH]c4ccc(-c5cccc(OC)c5)cc34)[C@@](C(=O)OC)(c3cc4c(cc3OC)N(C)[C@H]3[C@@](O)(C(=O)OC)[C@H](OC(C)=O)[C@]5(CC)C=CCN6CC[C@]43[C@@H]65)C2)C1 [Example 9, 12′-(3-methoxyphenyl) vinblastine]",500 nM,300 nM,–,–
"CC[C@]1(O)C[C@H]2CN(CCc3c([nH]c4ccc(-c5ccc(F)cc5)cc34)[C@@](C(=O)OC)(c3cc4c(cc3OC)N(C)[C@H]3[C@@](O)(C(=O)OC)[C@H](OC(C)=O)[C@]5(CC)C=CCN6CC[C@]43[C@@H]65)C2)C1 [Example 10, 12′-(4-fluorophenyl) vinblastine]",95 nM,250 nM,–,–
"CC[C@]1(O)C[C@H]2CN(CCc3c([nH]c4ccc(-c5cccc(F)c5)cc34)[C@@](C(=O)OC)(c3cc4c(cc3OC)N(C)[C@H]3[C@@](O)(C(=O)OC)[C@H](OC(C)=O)[C@]5(CC)C=CCN6CC[C@]43[C@@H]65)C2)C1 [Example 11, 12′-(3-fluorophenyl) vinblastine]",300 nM,300 nM,–,–
"CC[C@]1(O)C[C@H]2CN(CCc3c([nH]c4ccc(-c5cccc(O)c5)cc34)[C@@](C(=O)OC)(c3cc4c(cc3OC)N(C)[C@H]3[C@@](O)(C(=O)OC)[C@H](OC(C)=O)[C@]5(CC)C=CCN6CC[C@]43[C@@H]65)C2)C1 [Example 12, 12′-(3-hydroxyphenyl) vinblastine]",300 nM,200 nM,–,–
"CC[C@]1(O)C[C@H]2CN(CCc3c([nH]c4ccc(-c5cccnc5)cc34)[C@@](C(=O)OC)(c3cc4c(cc3OC)N(C)[C@H]3[C@@](O)(C(=O)OC)[C@H](OC(C)=O)[C@]5(CC)C=CCN6CC[C@]43[C@@H]65)C2)C1 [Example 13, 12′-(3-pyridyl) vinblastine]",600 nM,> 1000 nM,–,–
"CC[C@]1(O)C[C@H]2CN(CCc3c([nH]c4ccc(-c5ccsc5)cc34)[C@@](C(=O)OC)(c3cc4c(cc3OC)N(C)[C@H]3[C@@](O)(C(=O)OC)[C@H](OC(C)=O)[C@]5(CC)C=CCN6CC[C@]43[C@@H]65)C2)C1 [Example 14, 12′-(3-thienyl) vinblastine]",300 nM,300 nM,–,–
"CC[C@]1(O)C[C@H]2CN(CCc3c([nH]c4ccc(-c5nccs5)cc34)[C@@](C(=O)OC)(c3cc4c(cc3OC)N(C)[C@H]3[C@@](O)(C(=O)OC)[C@H](OC(C)=O)[C@]5(CC)C=CCN6CC[C@]43[C@@H]65)C2)C1 [Example 15, 12′-(2-thiazolyl) vinblastine]",100 nM,200 nM,–,–
"CC[C@]1(O)C[C@H]2CN(CCc3c([nH]c4ccc(C#C[Si](C)(C)C)cc34)[C@@](C(=O)OC)(c3cc4c(cc3OC)N(C)[C@H]3[C@@](O)(C(=O)OC)[C@H](OC(C)=O)[C@]5(CC)C=CCN6CC[C@]43[C@@H]65)C2)C1 [Example 16, 12′-(trimethylsilylethynyl)vinblastine]",–,–,40 nM,300 nM
"CC#Cc1ccc2[nH]c3c(c2c1)CCN1C[C@H](C[C@@](O)(CC)C1)C[C@]3(C(=O)OC)c1cc2c(cc1OC)N(C)[C@H]1[C@@](O)(C(=O)OC)[C@H](OC(C)=O)[C@]3(CC)C=CCN4CC[C@]21[C@@H]43 [Example 18, 12′-propynylvinblastine]",–,–,300 nM,300 nM
"CC[C@]1(O)C[C@H]2CN(CCc3c([nH]c4ccc(C#CC(C)C)cc34)[C@@](C(=O)OC)(c3cc4c(cc3OC)N(C)[C@H]3[C@@](O)(C(=O)OC)[C@H](OC(C)=O)[C@]5(CC)C=CCN6CC[C@]43[C@@H]65)C2)C1 [Example 20, 12′-(3-methylbutynyl) vinblastine]",> 1000 nM,500 nM,–,–
"CC[C@]1(O)C[C@H]2CN(CCc3c([nH]c4ccc(C#CC(C)C)cc34)[C@@](C(=O)OC)(c3cc4c(cc3OC)N(C=O)[C@H]3[C@@](O)(C(=O)OC)[C@H](OC(C)=O)[C@]5(CC)C=CCN6CC[C@]43[C@@H]65)C2)C1 [Example 21, 12′-(3-methylbutynyl) vincristine]",300 nM,300 nM,–,–
"CCCCC#Cc1ccc2[nH]c3c(c2c1)CCN1C[C@H](C[C@@](O)(CC)C1)C[C@]3(C(=O)OC)c1cc2c(cc1OC)N(C=O)[C@H]1[C@@](O)(C(=O)OC)[C@H](OC(C)=O)[C@]3(CC)C=CCN4CC[C@]21[C@@H]43 [Example 22, 12′-hexynylvincristine]",300 nM,300 nM,–,–
"CCCCC#Cc1ccc2[nH]c3c(c2c1)CCN1C[C@H](C[C@@](O)(CC)C1)C[C@]3(C(=O)OC)c1cc2c(cc1OC)N(C)[C@H]1[C@@](O)(C(=O)OC)[C@H](OC(C)=O)[C@]3(CC)C=CCN4CC[C@]21[C@@H]43 [Example 23, 12′-hexynylvinblastine]",–,–,50 nM,40 nM
"CC[C@]1(O)C[C@H]2CN(CCc3c([nH]c4ccc(C#CCN(C)C)cc34)[C@@](C(=O)OC)(c3cc4c(cc3OC)N(C)[C@H]3[C@@](O)(C(=O)OC)[C@H](OC(C)=O)[C@]5(CC)C=CCN6CC[C@]43[C@@H]65)C2)C1 [Example 24, 12′-(N,N-dimethylaminopropynyl)vinblastine]",400 nM,300 nM,–,–
"C=Cc1ccc2[nH]c3c(c2c1)CCN1C[C@H](C[C@@](O)(CC)C1)C[C@]3(C(=O)OC)c1cc2c(cc1OC)N(C)[C@H]1[C@@](O)(C(=O)OC)[C@H](OC(C)=O)[C@]3(CC)C=CCN4CC[C@]21[C@@H]43 [Example 25, 12′-vinylvinblastine]",–,–,9 nM,3 nM
"CCOC(=O)/C=C/c1ccc2[nH]c3c(c2c1)CCN1C[C@H](C[C@@](O)(CC)C1)C[C@]3(C(=O)OC)c1cc2c(cc1OC)N(C)[C@H]1[C@@](O)(C(=O)OC)[C@H](OC(C)=O)[C@]3(CC)C=CCN4CC[C@]21[C@@H]43 [Example 26, 12′-(2-ethoxycarbonylvinyl)vinblastine]",70 nM,165 nM,–,–
"CC[C@]1(O)C[C@H]2CN(CCc3c([nH]c4ccc(/C=C/C(=O)OC(C)(C)C)cc34)[C@@](C(=O)OC)(c3cc4c(cc3OC)N(C)[C@H]3[C@@](O)(C(=O)OC)[C@H](OC(C)=O)[C@]5(CC)C=CCN6CC[C@]43[C@@H]65)C2)C1 [Example 27, 12′-(2-tert-butoxycarbonylvinyl) vinblastine]",300 nM,200 nM,–,–
"CC[C@]1(O)C[C@H]2CN(CCc3c([nH]c4ccc(/C=C/C(=O)O)cc34)[C@@](C(=O)OC)(c3cc4c(cc3OC)N(C)[C@H]3[C@@](O)(C(=O)OC)[C@H](OC(C)=O)[C@]5(CC)C=CCN6CC[C@]43[C@@H]65)C2)C1 [Example 28, 12′-(2-carboxylvinyl) vinblastine]",300 nM,100 nM,–,–
"CC[C@]1(O)C[C@H]2CN(CCc3c([nH]c4ccc(/C=C/C#N)cc34)[C@@](C(=O)OC)(c3cc4c(cc3OC)N(C)[C@H]3[C@@](O)(C(=O)OC)[C@H](OC(C)=O)[C@]5(CC)C=CCN6CC[C@]43[C@@H]65)C2)C1 [Example 30, 12′-(2-cyanovinyl) vinblastine]",45 nM,65 nM,–,–
